# The source made the active and inactive calls.
# How the values were obtained:
# Beta-galactosidase = Beta-galactosidase (Escherichia coli, UniProt Q8VNN2); assay: beta-galactosidase enzyme inhibitors and activators, dose response, artefact control for CCR6 antagonist project, biochemical, E. coli enzyme, set 3 (AID 504712); format: functional
# [1] = Luminescence Cell-Based Dose Retest to Confirm Inhibitors of Cancer Stem Cells. [Related pubchem assays (depositor defined):AID2717, AID2721]; format: functional; settings: Homo sapiens
# [2] = microbe, parasite or virus in culture; format: functional; settings: Mycobacterium tuberculosis
# Coagulation factor XII = biological target: T1, Coagulation factor XII (Homo sapiens, UniProt P00748); format: functional;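 further: activated factor XIIa alpha cleaving a fluorogenic AMC peptide substrate; inhibitor potency from loss of enzyme activity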
# T1 sequence (P00748 whole entry): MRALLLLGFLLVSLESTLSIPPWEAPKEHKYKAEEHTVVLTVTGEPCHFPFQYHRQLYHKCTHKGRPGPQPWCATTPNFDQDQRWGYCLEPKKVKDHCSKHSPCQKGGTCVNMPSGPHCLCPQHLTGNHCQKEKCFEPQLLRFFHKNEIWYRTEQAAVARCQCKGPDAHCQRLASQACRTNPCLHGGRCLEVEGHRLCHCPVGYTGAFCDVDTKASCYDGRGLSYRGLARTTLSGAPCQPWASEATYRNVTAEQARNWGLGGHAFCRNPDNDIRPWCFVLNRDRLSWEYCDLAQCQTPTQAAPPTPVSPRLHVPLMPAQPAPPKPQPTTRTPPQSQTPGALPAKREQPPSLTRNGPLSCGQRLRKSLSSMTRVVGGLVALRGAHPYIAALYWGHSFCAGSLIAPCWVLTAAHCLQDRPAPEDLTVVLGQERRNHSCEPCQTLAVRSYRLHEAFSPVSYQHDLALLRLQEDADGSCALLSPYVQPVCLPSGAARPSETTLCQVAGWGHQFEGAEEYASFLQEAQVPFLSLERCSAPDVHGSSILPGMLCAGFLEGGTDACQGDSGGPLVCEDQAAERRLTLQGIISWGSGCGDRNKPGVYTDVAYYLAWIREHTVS
# [3] = biological target: Dual specificity protein phosphatase 3 (Homo sapiens, UniProt P51452); assay: SAR VHR1 Fluorescent Assay for In Vitro dose response studies Set 2. [Related pubchem assays (depositor defined):AID1654, AID1661, AID1878]; format: functional
# [4] = biological target: Eukaryotic translation initiation factor 4E (Mus musculus, UniProt P63073); assay: eIF4E–eIF4G protein interaction inhibitors, dose response, biochemical, TR-FRET (AID 855); format: functional;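 further: potency for disrupting eIF4E binding to eIF4GI seen as loss of FRET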
# [5] = biological target: T2, Tyrosine-protein phosphatase non-receptor type 7 (Homo sapiens, UniProt P35236); assay: SAR analysis of chemical inhibitors of HePTP using a Fluorescent assay - Set 2. [Related pubchem assays (depositor defined):AID1059, AID1077, AID1661, AID2085, AID521]; format: functional
# T2 sequence (P35236 whole entry): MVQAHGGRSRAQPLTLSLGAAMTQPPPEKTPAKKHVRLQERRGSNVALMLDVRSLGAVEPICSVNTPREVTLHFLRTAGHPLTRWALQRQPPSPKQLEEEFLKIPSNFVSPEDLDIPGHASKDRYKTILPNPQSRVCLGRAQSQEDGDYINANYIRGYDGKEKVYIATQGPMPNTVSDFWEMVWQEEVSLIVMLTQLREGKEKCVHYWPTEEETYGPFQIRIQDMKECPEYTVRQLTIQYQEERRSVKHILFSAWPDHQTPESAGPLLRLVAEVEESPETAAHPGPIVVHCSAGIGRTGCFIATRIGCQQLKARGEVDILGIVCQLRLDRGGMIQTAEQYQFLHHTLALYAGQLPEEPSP
# [6] = biological target: Eukaryotic translation initiation factor 4H (Homo sapiens, UniProt Q15056); assay: eIF4H inhibition in translation initiation, SAR follow-up (AID 435011); format: functional
# [7] = biological target: Polyadenylate-binding protein 1 (Homo sapiens, UniProt P11940); assay: PABP inhibition in translation initiation, SAR follow-up (AID 435018); format: functional
# [8] = cytotoxicity in NIH/3T3 mouse fibroblasts, dose response, cytotoxicity control, cell-based, mouse embryonic fibroblasts, dry powder, set 2 (AID 493247); format: functional; settings: Fibroblast
# Trypanosoma cruzi = assay: growth inhibition of intracellular Trypanosoma cruzi, dose response, cell-based, plate reader, dry powder, set 3 (AID 493197); format: functional
# [9] = biological target: Glutathione-S-transferase (Schistosoma japonicum, UniProt Q26513); assay: biotin-GST/anti-GST TR-FRET signal inhibitors, dose response, artefact control for Vif-APOBEC3G degradation inhibitor project, biochemical (AID 1117362); format: functional
# [10] = biological target: T3, Heat shock 70 kDa protein 1A (Homo sapiens, UniProt P0DMV8); assay: Hsp70 inhibitors, biochemical, TR-FRET (AID 786)
# [11] = biological target: Induced myeloid leukemia cell differentiation protein Mcl-1 (Homo sapiens, UniProt Q07820); format: functional
# [12] = Luminescence Cell-Based Dose Confirmation HTS to Identify Activators of 5'UTR Stem-Loop Driven Alpha-Synuclein mRNA Translation in H4 Neuroglioblastoma Cells. [Related pubchem assays: 1829 (Project Summary), 1814 (Primary HTS)]; format: functional
# [13] = biological target: T3, Heat shock 70 kDa protein 1A; assay: Hsp70 inhibitors, probe displacement, primary screen, biochemical, fluorescence polarization (AID 583)
# [14] = biological target: T2, Tyrosine-protein phosphatase non-receptor type 7; assay: redox-dependent HePTP inhibition, mechanism study, biochemical, fluorescence (AID 2068); format: functional
# H4 = assay: Luminescence Cell-Based Dose Response HTS to Identify Activators of 5'UTR Stem-Loop Driven Prion Protein mRNA Translation in H4 Neuroglioblastoma Cells. [Related pubchem assays: 1829 (Project Summary), 1814 (Primary HTS)]; format: functional; settings: Homo sapiens
# [15] = Luminescence Cell-Based Dose Response HTS to Identify Activators of Luciferase Translation or Activity in H4 […] Cells. [Related pubchem assays: 1829 (Project Summary), 1814 (Primary HTS)]; format: functional
# Large T antigen = Large T antigen (Simian virus 40, UniProt P03070); format: functional, Betapolyomavirus macacae;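 further: Confirmatory-stage PubChem screen for compounds that inhibit SV40 T antigen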
# Troponin, cardiac muscle = Troponin, cardiac muscle (Homo sapiens, UniProt P19429+P45379+P63316); assay: inhibitors of cardiac thin filament calcium sensitivity, dose response, biochemical, fluorescence, cardiac regulated thin filaments, triplicate IC50 (AID 504742); format: protein-complex assay
# [16] = biological target: Potassium voltage-gated channel subfamily KQT member 2 (Rattus norvegicus, UniProt O88943); assay: retigabine-insensitive KCNQ2 potentiators, concentration-response, dose response, cell-based, retigabine-insensitive compounds (AID 2654); format: functional
# Keap1/Nrf2 = Keap1/Nrf2 (Homo sapiens, UniProt Q14145); assay: Keap1-Nrf2 protein-protein interaction inhibitors, dose response, biochemical, fluorescence polarization, cherry-picked samples (AID 588683)
# [17] = biological target: T4, Long-chain-fatty-acid--AMP ligase FadD28 (Mycobacterium tuberculosis, UniProt P9WQ59); assay: Fluorescence polarization aasay to screen for inhibitors that compete for the binding of FadD28 to a bisubstrate Measured in Biochemical System Using Plate Reader - 2147-01_Inhibitor_Dose_CherryPick_Activity.; format: functional, Mycobacterium tuberculosis H37Rv
# T4 sequence (P9WQ59 whole entry): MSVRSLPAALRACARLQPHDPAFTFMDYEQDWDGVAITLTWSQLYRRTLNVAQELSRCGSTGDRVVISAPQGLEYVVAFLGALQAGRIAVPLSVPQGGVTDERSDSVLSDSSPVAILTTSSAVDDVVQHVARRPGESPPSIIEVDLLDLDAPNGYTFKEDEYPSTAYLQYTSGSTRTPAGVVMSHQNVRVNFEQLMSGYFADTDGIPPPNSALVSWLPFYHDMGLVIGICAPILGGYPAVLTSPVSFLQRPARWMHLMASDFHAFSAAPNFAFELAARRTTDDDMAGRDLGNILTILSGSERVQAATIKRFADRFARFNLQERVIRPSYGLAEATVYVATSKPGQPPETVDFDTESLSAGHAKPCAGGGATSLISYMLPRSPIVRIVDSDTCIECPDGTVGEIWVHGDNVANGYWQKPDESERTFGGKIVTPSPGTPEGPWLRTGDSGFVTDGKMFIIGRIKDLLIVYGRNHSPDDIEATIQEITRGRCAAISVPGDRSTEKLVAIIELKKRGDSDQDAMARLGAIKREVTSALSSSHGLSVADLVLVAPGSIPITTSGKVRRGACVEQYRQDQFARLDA
# Caspase-6 = biological target: T5, Caspase-6 (Homo sapiens, UniProt P55212); assay: human caspase-6 inhibitors, dose response, biochemical, VEID-R110 fluorescence, cherry-pick (AID 720632)
# T5 sequence (P55212 whole entry): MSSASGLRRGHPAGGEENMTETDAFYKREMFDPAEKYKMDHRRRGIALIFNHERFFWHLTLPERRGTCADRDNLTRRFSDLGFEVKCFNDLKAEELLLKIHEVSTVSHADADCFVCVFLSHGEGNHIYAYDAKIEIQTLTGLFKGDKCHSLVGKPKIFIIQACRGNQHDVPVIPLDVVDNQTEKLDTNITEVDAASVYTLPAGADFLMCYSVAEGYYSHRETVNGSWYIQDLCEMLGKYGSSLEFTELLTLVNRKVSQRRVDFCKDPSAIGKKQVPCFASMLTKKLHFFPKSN
# [18] = biological target: T6, Zinc finger protein mex-5 (Caenorhabditis elegans, UniProt Q9XUB2); assay: MEX-5/TCR-2 RNA interaction inhibitors, dose response, biochemical, C. elegans, fluorescence polarization (AID 1960)
# T6 sequence (Q9XUB2 whole entry): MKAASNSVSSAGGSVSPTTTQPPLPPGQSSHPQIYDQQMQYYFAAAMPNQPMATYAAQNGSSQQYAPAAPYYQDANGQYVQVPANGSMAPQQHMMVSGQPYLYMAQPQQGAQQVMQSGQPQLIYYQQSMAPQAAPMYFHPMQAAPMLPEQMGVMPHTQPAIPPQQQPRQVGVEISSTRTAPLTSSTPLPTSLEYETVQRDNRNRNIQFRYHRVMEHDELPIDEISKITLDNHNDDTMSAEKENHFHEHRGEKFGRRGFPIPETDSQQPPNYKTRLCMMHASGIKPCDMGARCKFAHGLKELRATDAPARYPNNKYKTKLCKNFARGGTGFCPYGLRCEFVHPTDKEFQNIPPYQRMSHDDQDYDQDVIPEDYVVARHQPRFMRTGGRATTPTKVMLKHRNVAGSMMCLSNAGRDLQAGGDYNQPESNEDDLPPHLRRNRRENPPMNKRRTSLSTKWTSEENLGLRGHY
# [19] = AlphaScreen signal interference compounds, dose response, artefact control for ARNT-TACC3 interaction inhibitor project, biochemical, luminescence, cherry-pick (AID 651705); format: functional;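 further: AlphaScreen bead proximity signal that flags compounds interfering with the detection technology; potency reflects signal decrease which marks the compound as an assay artifact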
# ORF 73 = ORF 73 (Human herpesvirus 8, UniProt O40947); assay: inhibitors of C-LANA binding to LBS DNA, dose response, biochemical, fluorescence polarization, cherry-picked samples (AID 504725); design: species or system Human gammaherpesvirus 8;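 further: fluorescence polarization of a labeled DNA duplex reporting LANA DNA binding; potency is for inhibitors that block LANA binding to the DNA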
# [20] = biological target: T7, RNA-binding protein pos-1 (Caenorhabditis elegans, UniProt G5EF15); assay: inhibitors of POS-1/mex-3 RNA binding, dose response, biochemical, fluorescence polarization (AID 1964);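 further: purified POS-1 fused to maltose binding protein made in E. coli; potency of compounds blocking POS-1 binding to fluorescent RNA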
# T7 sequence (G5EF15 whole entry): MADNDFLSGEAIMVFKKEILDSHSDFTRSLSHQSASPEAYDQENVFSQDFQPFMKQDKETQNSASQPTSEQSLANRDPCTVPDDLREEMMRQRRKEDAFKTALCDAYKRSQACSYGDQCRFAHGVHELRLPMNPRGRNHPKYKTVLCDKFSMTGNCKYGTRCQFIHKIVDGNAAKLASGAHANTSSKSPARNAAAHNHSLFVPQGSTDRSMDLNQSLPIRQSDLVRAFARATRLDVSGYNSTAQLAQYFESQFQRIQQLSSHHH
# HeLa = assay: HeLa cell cytotoxicity, dose response, cytotoxicity control, 24 h, cherry-picked samples (AID 504726); format: functional, cell-based; settings: Homo sapiens;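 further: potency for cytotoxicity as loss of luminescence signal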
# Eukaryotic translation initiation factor 4E, sequence (P63073 whole entry): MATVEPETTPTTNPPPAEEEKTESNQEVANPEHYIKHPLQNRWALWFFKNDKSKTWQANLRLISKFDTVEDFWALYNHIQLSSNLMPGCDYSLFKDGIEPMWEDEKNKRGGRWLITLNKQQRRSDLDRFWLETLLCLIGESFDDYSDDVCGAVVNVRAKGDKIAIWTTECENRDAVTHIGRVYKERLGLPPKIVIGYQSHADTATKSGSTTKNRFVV
# T3 sequence (P0DMV8 whole entry): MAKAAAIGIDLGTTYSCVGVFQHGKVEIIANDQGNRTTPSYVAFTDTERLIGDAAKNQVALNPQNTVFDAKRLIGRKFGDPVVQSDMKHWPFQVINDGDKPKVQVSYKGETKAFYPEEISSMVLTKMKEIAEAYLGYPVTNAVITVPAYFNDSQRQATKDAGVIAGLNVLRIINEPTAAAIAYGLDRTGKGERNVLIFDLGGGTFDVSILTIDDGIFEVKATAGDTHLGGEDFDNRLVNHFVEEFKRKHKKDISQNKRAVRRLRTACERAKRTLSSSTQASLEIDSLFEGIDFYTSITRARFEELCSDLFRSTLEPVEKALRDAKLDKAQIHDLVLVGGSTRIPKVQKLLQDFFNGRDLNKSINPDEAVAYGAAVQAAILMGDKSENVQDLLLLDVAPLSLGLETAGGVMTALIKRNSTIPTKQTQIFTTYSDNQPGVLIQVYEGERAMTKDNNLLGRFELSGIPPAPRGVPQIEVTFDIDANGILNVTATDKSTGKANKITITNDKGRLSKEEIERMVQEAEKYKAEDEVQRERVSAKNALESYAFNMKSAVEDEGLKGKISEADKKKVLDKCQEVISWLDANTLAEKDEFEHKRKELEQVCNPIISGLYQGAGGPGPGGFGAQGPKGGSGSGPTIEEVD
# Large T antigen, sequence (P03070 whole entry): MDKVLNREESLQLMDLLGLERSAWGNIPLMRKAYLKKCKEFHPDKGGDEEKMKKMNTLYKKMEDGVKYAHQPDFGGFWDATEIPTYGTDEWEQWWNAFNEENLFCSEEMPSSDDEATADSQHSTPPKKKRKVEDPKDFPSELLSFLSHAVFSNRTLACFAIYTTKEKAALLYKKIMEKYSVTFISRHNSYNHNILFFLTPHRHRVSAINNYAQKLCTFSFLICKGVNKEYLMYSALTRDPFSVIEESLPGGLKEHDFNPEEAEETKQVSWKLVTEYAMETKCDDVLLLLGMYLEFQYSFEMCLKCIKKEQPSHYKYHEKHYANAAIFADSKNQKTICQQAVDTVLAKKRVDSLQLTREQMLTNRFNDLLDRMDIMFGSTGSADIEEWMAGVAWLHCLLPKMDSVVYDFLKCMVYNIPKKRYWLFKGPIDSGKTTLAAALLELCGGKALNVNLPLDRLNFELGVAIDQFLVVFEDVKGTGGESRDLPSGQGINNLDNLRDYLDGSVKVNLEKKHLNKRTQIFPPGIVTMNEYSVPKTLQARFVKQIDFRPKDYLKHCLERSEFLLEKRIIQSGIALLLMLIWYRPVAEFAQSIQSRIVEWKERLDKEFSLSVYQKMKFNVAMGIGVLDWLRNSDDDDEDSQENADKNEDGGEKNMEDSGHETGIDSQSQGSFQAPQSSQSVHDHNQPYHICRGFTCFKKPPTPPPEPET
# Keap1/Nrf2, sequence (Q16236 whole entry): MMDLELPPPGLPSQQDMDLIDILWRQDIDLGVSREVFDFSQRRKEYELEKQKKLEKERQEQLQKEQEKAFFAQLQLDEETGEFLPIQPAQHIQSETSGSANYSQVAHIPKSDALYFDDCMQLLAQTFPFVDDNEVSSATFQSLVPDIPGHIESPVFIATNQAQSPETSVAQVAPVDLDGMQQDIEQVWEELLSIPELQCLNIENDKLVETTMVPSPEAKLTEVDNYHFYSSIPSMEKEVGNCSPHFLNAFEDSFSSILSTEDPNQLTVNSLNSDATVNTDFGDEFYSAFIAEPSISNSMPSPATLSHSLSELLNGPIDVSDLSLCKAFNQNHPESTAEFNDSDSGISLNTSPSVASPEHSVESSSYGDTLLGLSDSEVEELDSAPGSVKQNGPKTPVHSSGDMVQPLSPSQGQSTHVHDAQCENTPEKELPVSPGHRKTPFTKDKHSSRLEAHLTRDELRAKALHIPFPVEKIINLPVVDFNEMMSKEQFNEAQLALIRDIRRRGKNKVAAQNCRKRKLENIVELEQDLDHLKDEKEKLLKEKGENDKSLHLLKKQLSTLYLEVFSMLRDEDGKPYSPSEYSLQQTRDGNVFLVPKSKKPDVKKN
# Keap1/Nrf2, sequence (Q14145 whole entry): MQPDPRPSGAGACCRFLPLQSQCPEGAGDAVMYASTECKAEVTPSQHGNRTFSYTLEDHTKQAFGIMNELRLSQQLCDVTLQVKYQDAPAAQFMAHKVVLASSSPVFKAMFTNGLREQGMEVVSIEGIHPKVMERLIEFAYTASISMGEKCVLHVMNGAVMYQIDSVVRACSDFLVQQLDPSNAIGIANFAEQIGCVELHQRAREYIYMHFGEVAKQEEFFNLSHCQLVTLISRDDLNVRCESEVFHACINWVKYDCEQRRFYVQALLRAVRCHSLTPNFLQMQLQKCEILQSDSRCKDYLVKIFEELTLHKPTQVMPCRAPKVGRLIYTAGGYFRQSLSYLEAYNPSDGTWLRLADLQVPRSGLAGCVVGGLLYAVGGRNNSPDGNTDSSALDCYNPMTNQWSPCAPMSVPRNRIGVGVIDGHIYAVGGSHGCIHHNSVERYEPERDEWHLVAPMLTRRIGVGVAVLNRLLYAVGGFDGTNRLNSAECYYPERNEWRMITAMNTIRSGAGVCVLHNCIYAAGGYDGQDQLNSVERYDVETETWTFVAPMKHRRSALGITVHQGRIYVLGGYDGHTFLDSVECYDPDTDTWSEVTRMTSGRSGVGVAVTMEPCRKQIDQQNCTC
# Potassium voltage-gated channel subfamily KQT member 2, sequence (O88943 whole entry): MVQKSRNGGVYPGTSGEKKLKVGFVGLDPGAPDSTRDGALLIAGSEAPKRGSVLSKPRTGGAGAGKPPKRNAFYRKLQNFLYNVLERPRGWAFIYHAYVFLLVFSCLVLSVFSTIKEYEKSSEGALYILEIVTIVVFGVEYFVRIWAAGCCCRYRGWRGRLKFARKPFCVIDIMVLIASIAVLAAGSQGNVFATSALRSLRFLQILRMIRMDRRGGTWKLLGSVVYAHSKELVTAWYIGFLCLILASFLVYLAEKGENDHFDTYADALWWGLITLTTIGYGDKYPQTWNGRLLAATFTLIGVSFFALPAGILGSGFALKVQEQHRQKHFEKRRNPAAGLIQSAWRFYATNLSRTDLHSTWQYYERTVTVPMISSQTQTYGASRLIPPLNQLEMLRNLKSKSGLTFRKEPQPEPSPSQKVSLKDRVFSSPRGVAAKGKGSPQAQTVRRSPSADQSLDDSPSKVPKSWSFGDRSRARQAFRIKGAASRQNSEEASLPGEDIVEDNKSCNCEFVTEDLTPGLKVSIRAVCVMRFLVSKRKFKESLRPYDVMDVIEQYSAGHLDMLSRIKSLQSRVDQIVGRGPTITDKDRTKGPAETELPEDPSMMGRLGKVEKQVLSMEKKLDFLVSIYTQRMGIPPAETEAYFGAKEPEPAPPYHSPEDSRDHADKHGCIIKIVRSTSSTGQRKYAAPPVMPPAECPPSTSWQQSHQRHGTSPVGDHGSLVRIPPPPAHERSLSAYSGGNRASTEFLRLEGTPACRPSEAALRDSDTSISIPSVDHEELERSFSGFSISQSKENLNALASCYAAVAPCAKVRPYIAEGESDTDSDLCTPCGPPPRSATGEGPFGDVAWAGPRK
# Induced myeloid leukemia cell differentiation protein Mcl-1, sequence (Q07820 whole entry): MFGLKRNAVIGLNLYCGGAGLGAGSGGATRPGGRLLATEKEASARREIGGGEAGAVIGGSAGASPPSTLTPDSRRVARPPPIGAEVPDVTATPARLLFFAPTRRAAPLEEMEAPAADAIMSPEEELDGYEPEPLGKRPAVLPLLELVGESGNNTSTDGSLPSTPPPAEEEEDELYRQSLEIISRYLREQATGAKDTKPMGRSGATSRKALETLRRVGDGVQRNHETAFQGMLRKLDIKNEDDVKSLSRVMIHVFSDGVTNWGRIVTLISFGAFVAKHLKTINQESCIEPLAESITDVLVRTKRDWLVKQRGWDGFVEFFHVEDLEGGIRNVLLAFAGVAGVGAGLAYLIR
# Polyadenylate-binding protein 1, sequence (P11940 whole entry): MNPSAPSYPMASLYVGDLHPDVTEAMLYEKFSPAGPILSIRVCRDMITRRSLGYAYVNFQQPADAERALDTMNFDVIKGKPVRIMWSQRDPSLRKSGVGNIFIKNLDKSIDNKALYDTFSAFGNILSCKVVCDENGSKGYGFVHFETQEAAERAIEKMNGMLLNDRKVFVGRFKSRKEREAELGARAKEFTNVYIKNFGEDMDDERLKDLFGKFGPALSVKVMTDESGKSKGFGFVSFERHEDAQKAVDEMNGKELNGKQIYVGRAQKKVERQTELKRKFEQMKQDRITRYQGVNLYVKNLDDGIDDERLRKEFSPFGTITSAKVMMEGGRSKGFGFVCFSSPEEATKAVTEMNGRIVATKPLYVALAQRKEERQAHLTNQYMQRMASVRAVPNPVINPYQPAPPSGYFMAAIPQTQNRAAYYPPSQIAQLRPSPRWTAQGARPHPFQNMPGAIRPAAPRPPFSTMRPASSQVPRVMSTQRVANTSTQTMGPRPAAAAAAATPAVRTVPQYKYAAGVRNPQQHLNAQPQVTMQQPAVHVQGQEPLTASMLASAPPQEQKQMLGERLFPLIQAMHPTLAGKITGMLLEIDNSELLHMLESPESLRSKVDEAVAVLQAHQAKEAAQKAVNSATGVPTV
# Dual specificity protein phosphatase 3, sequence (P51452 whole entry): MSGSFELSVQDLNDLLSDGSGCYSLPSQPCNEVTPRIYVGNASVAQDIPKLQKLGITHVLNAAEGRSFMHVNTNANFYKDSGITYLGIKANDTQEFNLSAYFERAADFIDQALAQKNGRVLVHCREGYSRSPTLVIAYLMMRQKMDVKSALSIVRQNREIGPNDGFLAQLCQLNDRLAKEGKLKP
smiles,measurement,setting,value
CNC(CC(=O)c1ccc([N+](=O)[O-])cc1)C(Cl)(Cl)Cl (configuration not stated),IC50,Beta-galactosidase,> 66.6 µM (inactive)
same,AC50,[1],2.3 µM (active)
same,CC50,[2],> 40 µM (active)
Nc1c(C(=O)NCc2cccnc2)sc(=S)n1-c1ccccc1,IC50,Coagulation factor XII,> 50 µM (inactive)
same,IC50,[3],78 µM (active)
same,IC50,[4],> 64 µM (inactive)
same,IC50,[5],> 100 µM (inactive)
COc1ccc(C(=O)N/N=C\c2ccc(OCC(=O)Nc3ccc(C)c(C)c3)c(OC)c2)cc1,IC50,[6],> 100 µM (inactive)
same,IC50,[7],> 100 µM (inactive)
COc1ccc(CCN(C)C(=O)C2CCCN(Cc3ccccc3Cl)C2)cc1OC (configuration not stated),AC50,[8],46.8 µM (active)
same,AC50,Trypanosoma cruzi,13.7 µM (active)
O=C(Nc1ccc2nc(-c3ccco3)c(-c3ccco3)nc2c1)NC1CC1,IC50,[9],75.5 µM (active)
same,IC50,[10],> 100 µM (not active)
same,IC50,[11],2.92 µM (active)
same,EC50,[12],> 120 µM (not active)
same,IC50,[13],73.3 µM (active)
same,IC50,[4],33.1 µM (inactive)
same,IC50,[14],1.34 µM (active)
same,EC50,H4,> 120 µM (not active)
same,EC50,[15],13.2 µM (active)
same,IC50,Large T antigen,39.6 µM (active)
same,IC50,"Troponin, cardiac muscle",47.5 µM (inactive)
O=C(NCc1ccc(Cl)cc1Cl)Nc1ccc(F)nc1,EC50,[16],6.31 µM (active)
NS(=O)(=O)c1ccc(N=Nc2cnc(O)c(O)c2)cc1,AC50,Keap1/Nrf2,17.1 µM (active)
same,AC50,[17],22.8 µM (active)
same,AC50,Caspase-6,3.44 µM (active)
same,EC50,[18],0.421 µM (active)
same,AC50,[19],135 µM (active)
same,AC50,ORF 73,19.5 µM (active)
same,IC50,Large T antigen,27.5 µM (active)
same,EC50,[20],5.41 µM (active)
same,AC50,HeLa,43.8 µM (active)

# — ChEMBL document CHEMBL1201862, “PubChem BioAssay data set” (2004)
